{"source": "paper PMC5131364", "about": "“Pharmacologic modulation of RORγt translates to efficacy in preclinical and translational models of psoriasis and inflammatory arthritis” (Scientific Reports, 2016)", "key": {"[1]": {"test_system": "collagen-induced arthritis in DBA/1Lacj mice", "experiment": "Mouse collagen-induced arthritis model", "assay_type": "in vivo", "conditions": "60 mg/kg BID oral", "protocol": "Mice (female DBA/1Lacj mice, Jackson Laboratories; 8–10 weeks) were housed with 12 hours light-dark cycle with food and water provided ad libitum. Following acclimation, mice were immunized with an emulsion containing equal amounts of Chick Type II Collagen (Chondrex, Redmond, WA) and Complete-Freund’s adjuvant (CFA, Chondrex), 100 μg each per mouse, on day 0 at the base of the tail and administered a second immunization boost on day 21. On day 21, animals were examined for clinical arthritis scores and randomized into treatment groups. […] The clinical arthritis scores were evaluated from days 21 to 34. Animals were euthanized under CO2 on day 35. Both hind-paws from each animal were collected and fixed in 10% neutral buffered formalin for histopathology. Both front paws were digested after removing the skin in 0.125% (v/v) Dispase II (Roche, Indianapolis, IN), 0.2% collagenase II (Roche, Indianapolis, IN), and 0.2% collagenase IV (Sigma-Aldrich, St. Louis, MO) in HBSS for 75 min at 37 °C and passed through a cell strainer. Cells were then stimulated and analyzed by flow cytometry for cytokine-producing cells.\nTissues were fixed in 10% formalin, sectioned, and stained with H&E for histology at Seventh Wave Laboratories, LLC, (Chesterfield, MO)."}, "[2]": {"test_system": "human CD4+ CD45RO+ CCR6+ T cells", "experiment": "Human memory CCR6+ T cells in vitro activation", "assay_type": "cell-based", "source_text": "The following antibodies (anti-mouse or anti-human) were purchased from BD Biosciences (San Diego, CA) or eBioscience (San Diego, CA): anti-CD3-FITC (mouse 17A2 and human SK7), anti-CD4-allophycocyanin (APC), anti-CD4-PerCp, anti-CD4-FITC, anti-CD4-PE (mouse GK1.5 and human SK3), anti-CD44-PerCp (mouse IM7), anti-γδ TCR-FITC, anti-γδ TCR-PE (mouse GL3 and human B1), anti-CD62L-FITC (mouse MEL-14 and human SK11), anti-CD45RO-APC (human UCHL1), anti-CCR6-PE (human 11A9), anti-CD45-PerCp (mouse 30-F11). Human or mouse anti-IFNγ (mouse XMG1.2 and human 4S.B3), anti-TNFα (mouse MP6-XT22 and human MAB11), anti-IL-17A (mouse eBio17B7 and human eBio64DEC17), anti-IL-22 (mouse 1H8PWSR and human 22URTI), and anti-Foxp3 (mouse FJK-16s and human 36A/E7), all PE or APC conjugated, were purchased from eBioscience (San Diego, CA). Human and mouse APC conjugated CD1d tetramers pre-loaded with alpha-GalCer and negative controls were obtained from ProImmune. For intracellular staining cells were stimulated for 4 hours at 37 °C with PMA and ionomycin (0.5 μg/ml each) in the presence of brefeldin A and monensin or with leukocyte activation cocktail (BD Bioscience, San Diego, CA). Cells were stained with fluorescence-labeled antibodies for surface marker, then fixed/permeabilized (eBioscience) and stained with antibodies for intracellular cytokines. For Foxp3 staining cells were fixed/permeabilized using transcription factor buffer set (eBioscience). The data were acquired on a FACS Calibur (BD Bioscience) and analyzed using FlowJo software (Tree Star, San Carlos, CA).\nHuman blood samples from healthy donors were provided by the Scripps Research Institute, La Jolla following Institutional Review Board approved protocol. Total CD4^+ T cells were isolated from the peripheral blood mononuclear cells (PBMCs) using a CD4^+ T cell Isolation Kit II (Miltenyl Biotec, Auburn, CA), following the manufacturer’s instructions. CCR6^+ cells were isolated from CD4^+ T cells using phycoerythrin (PE) conjugated anti-CCR6 antibody followed by anti-PE microbeads. Isolated CCR6^+ T cells were resuspended in culture medium and added to a 96-well plate which was pre-coated with 1 μg/ml anti-CD3 (BD Bioscience) at 1 × 10^5 cells per well. […] Cells were cultured at 37 °C and 5% CO2 for 6 days. Supernatants were assayed for accumulated cytokines using MSD multi-spot assay (Meso Scale Discovery, Rockville, MD) or R&D ELISA kit, and cells were used for intracellular staining."}, "[3]": {"test_system": "CLA+ memory T cells / autologous epidermal cells from guttate psoriasis patients", "experiment": "Co-culture of human psoriatic CLA+ memory T cells with epidermal cells, streptococcal extract", "assay_type": "cell-based", "source_text": "The study protocol was reviewed and subsequently approved by the Medical Ethics Committee of the Hospitals where the biopsies and blood were procured. All psoriasis donors in this study were required to be without disease-specific systemic therapy for at least 4 weeks or topical treatment for at least 2 weeks before the clinical samples were obtained. Circulating CLA^+/CLA^− CD45RO^+ CD3^+ cells and lesional epidermal cells were obtained from the same guttate psoriasis patient following the procedure described previously. In brief, memory T cell populations were isolated and enriched from peripheral blood lymphocytes by immunomagnetic separations. Epidermal cell suspensions were obtained from lesional biopsies by a dispase/trypsin treatment. The culture system was performed by seeding 50,000 circulating CLA^+ or CLA^− memory T cells with 30,000 autologous epidermal cells in a 96-flat bottom microwell plate (Nunc, Roskilde, Denmark) with culture medium (RPMI with 10% fetal calf serum). […] Cytokines in supernatants were quantified by multiplex fluorescent bead-based immunoassay, Diaclone DIAplex kit (Gen-Probe, Besançon, France), and data were collected with a F500 Flow Cytometer (Beckman Coulter, Fullerton, CA)."}, "[4]": {"test_system": "IL-23-induced psoriasis-like ear skin inflammation in C57BL/6N mice", "experiment": "IL-23-induced skin inflammation in mice", "assay_type": "in vivo, mouse", "conditions": "for reduction of IL-17A-producing total CD3+ T cells / reduction of IL-17A-producing γδ+ T cells: 30 mg/kg BID oral"}, "[5]": {"conditions": "1 μM, SE-stimulated CLA+/epidermal cell co-culture, not statistically significant"}}}
{"compound": "COc1nc2ccc([C@@](O)(c3ccc(C)nc3C)c3cnnn3C)cc2c(Cl)c1Cc1ccc(C(F)(F)F)cc1", "note": "[JNJ-54271074]", "values": [{"measurement": "reduction of AUC for disease score", "setting": "[1]", "result": 79, "unit": "%"}, {"measurement": "decrease of IL-17A-producing CD3+ cell population in paws", "setting": "[1]; day 35", "result": "~ 70%"}, {"measurement": "inflammation, cartilage damage and bone destruction compared with vehicle", "setting": "[1]; hind paws histology", "result": "significantly reduced"}, {"measurement": "reduction of total histopathology score", "setting": "[1]; hind paws, day 35", "result": 80, "unit": "%"}, {"measurement": "IFNγ production", "setting": "[2]; 1 μM", "result": "slightly increasing"}, {"measurement": "IL-22, TNFα and GM-CSF production", "setting": "[2]; 1 μM", "result": "trend of decreasing"}, {"measurement": "increase of IL-10 production over the control", "setting": "[2]; 1 μM", "result": 49, "unit": "%"}, {"measurement": "number of IL-17A-producing cells (single- and double-positive)", "setting": "[2]; 1 μM, flow cytometry", "result": "significantly decreased"}, {"measurement": "inhibition at 1 µM", "setting": "[2]; Homo sapiens, T-cell, vs DMSO control, non-polarizing activation, read-out: inhibition of IL-17A production", "result": 77, "unit": "%"}, {"measurement": "TNFα and IL-8 production", "setting": "[3]; 1 μM, SE-stimulated CLA+/epidermal cell co-culture", "result": "no effect"}, {"measurement": "increase of IFNγ production", "setting": "[3]; [5]", "result": 64, "unit": "%"}, {"measurement": "reduction of IL-6", "setting": "[3]; [5]", "result": 32, "unit": "%"}, {"measurement": "reduction of IL-17F production", "setting": "[3]; [5]", "result": 40, "unit": "%"}, {"measurement": "decrease of IL-17A production", "setting": "[3]; 1 μM, SE-stimulated CLA+/epidermal cell co-culture, vs DMSO, significant", "result": 78, "unit": "%"}, {"measurement": "IL-17A production in human cell co-culture model", "setting": "[3]; discussion, in words", "result": "significant inhibition"}, {"measurement": "skin inflammation (total skin histology scores, abscesses, acanthosis)", "setting": "[4]; 3, 10, 30 and 60 mg/kg BID oral, 7 days, dose-dependent", "result": "decreased skin inflammation"}, {"measurement": "ear mRNA expression of IL-17A, IL-22 and TNFα", "setting": "[4]; 30 and 60 mg/kg, did not reach statistical significance", "result": "suppressed"}, {"measurement": "reduction of IL-17A-producing total CD3+ T cells", "setting": "[4]; DLNs", "result": 71, "unit": "%"}, {"measurement": "reduction of IL-17A-producing γδ+ T cells", "setting": "[4]; DLNs", "result": 43, "unit": "%"}, {"measurement": "FOXP3+ CD4+ T cells populations, vehicle vs compound treated groups", "setting": "[4]; ear skin and DLNs, 30 mg/kg BID", "result": "very similar"}, {"measurement": "reduction of IL-17A-producing total CD3+ T cells", "setting": "[4]; ear skin", "result": 40, "unit": "%"}, {"measurement": "reduction of IL-17A-producing γδ+ T cells", "setting": "[4]; ear skin", "result": 60, "unit": "%"}, {"measurement": "ear mRNA expression of IL-17F, IFNγ and IL-6", "setting": "[4]; oral BID, 7 days", "result": "significantly inhibited"}]}
